The values below are quoted from earlier work in patent US20120040927A1, “MEDICINAL ANTIFUNGAL AND STEROID CREAM INCORPORATING A BIOPOLYMER AND A PROCESS TO MAKE IT” (APEX LABORATORIES PRIVATE LIMITED, priority 2009, published 2012).

Read-outs that look alike come from different tables or passages of the source.

Experiment in data set [1]: not given
The source holds these as a separate data set.

Data set [2] relates to Trichophyton rubrum, Trichophyton mentagrophytes, Epidermophyton floccosum, Microsporum canis and Candida species including Candida albicans.
Experiment in data set [3]: not given
The source holds these as a separate data set.

Turning to `Clc1ccccc1C(c1ccccc1)(c1ccccc1)n1ccnc1` [Clotrimazole, 1-(o-Chloro-α, α-diphenylbenzyl)imidazole], the Protein binding entry is on record as “about 90%”. Besides, the Solubility in ether result in data set [1] (ether) is recorded as “sparingly soluble”. Besides, in data set [1] (polyethylene glycol 400, ethanol, chloroform), the “Solubility in polyethylene glycol 400, ethanol and chloroform” value is reported as “very soluble”. Moreover, the Solubility in water entry in data set [1] is given as “practically insoluble”. The “In vitro antifungal activity against isolates” value in data set [2] was “fungistatic and fungicidal activity”. For the same compound, the Absorption entry in data set [3] (humans, oral administration) is reported as “well absorbed”. Also, the Absorption entry in data set [3] (topical and vaginal administration) is recorded as “minimally absorbed”.

For the compound `CC(=O)OCC(=O)[C@@]1(O)CC[C@H]2[C@@H]3CCC4=CC(=O)CC[C@]4(C)[C@H]3[C@@H](O)C[C@@]21C` [Hydrocortisone Acetate], the “Solubility in alcohol and in chloroform” value in data set [1] (alcohol, chloroform) is “slightly soluble”. For the same compound, in data set [1], the Solubility in water entry was “insoluble”.
